Like-named read-outs stand apart in the source and are kept apart here.
Experiments:
[1] = tested on: Phosphorylation of ERK1/2 in MIA PaCa-2 cells; assay: Phospho-ERK1/2 MSD assay in MIA PaCa-2 cells; assay type: cell-based; details: read-out: p-ERK IC50 (2 h; MIA PaCa-2), 2 h compound treatment
How it was run: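 In the procedure, cells were plated a day ahead at 25,000 per well. Next, a dilution series of compound in growth medium was added for 2 or 4 h. EGF (10 ng/mL) stimulation for 10 min preceded washing and RIPA lysis. Lysate phospho-ERK1/2 was read by MSD, with IC50 derived by 4-parameter logistic analysis.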

[2] = biological target: GDP-bound KRAS protein (aa 1-169), containing both G12C and C118A amino acid substitutions (Homo sapiens, UniProt P01116, C118A/G12C); assay: Coupled nucleotide exchange assay (SOS-mediated, AlphaScreen); assay type: biochemical; details: 5 min compound pre-incubation
Sequence of GDP-bound KRAS protein (aa 1-169), containing both G12C and C118A amino acid substitutions (P01116 1-169 isoform P01116-2 G12C/C118A): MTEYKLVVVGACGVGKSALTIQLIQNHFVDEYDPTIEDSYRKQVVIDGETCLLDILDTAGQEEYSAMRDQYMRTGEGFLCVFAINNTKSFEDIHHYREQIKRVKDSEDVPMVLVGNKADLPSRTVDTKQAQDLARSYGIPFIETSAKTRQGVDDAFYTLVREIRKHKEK

Structure (SMILES)	IC50 [1]	Coupled exchange IC50 (5 min) [2]	IC50 ([1]; Homo sapiens, MIA PaCa-2, 2 h)
C=CC(=O)N1CCN(c2nc(=O)n(-c3c(C)cccc3C3CC3)c3nc(-c4c(O)cccc4F)c(Cl)cc23)[C@@H](C)C1 (single isomer, unassigned) [Example 55-15-1]	206 nM	0.169 | nda μM	–
C=CC(=O)N1CCN(c2nc(=O)n(-c3c(C)cccc3C3CC3)c3nc(-c4c(O)cccc4F)c(Cl)cc23)[C@@H](C)C1 (single isomer, unassigned) [Example 55-15-2]	76 nM	0.061 | nda μM	–
C=CC(=O)N1CCN(c2nc(=O)n(-c3c(O)cccc3C(C)C)c3nc(-c4ccccc4F)c(Cl)cc23)[C@@H](C)C1 (single isomer, unassigned) [Example 55-26-2]	–	0.031 | nda μM	124 nM
C=CC(=O)N1CCN(c2nc(=O)n(-c3c(C)cnn3C(C)(C)C)c3nc(-c4ccccc4F)c(Cl)cc23)[C@@H](C)C1 (single isomer, unassigned) [Example 55-38-2]	–	0.133 | nda μM	108 nM
C=CC(=O)N1CCN(c2nc(=O)n(-c3c(C)ncnc3C(C)C)c3nc(-c4cc(F)ccc4F)c(Cl)cc23)[C@@H](C)C1 (single isomer, unassigned) [Example 55-39-2]	–	0.121 | nda μM	111 nM
C=CC(=O)N1CCN(c2nc(=O)n(-c3c(C)ncnc3C(C)C)c3nc(-c4cc(C)ccc4F)c(Cl)cc23)[C@@H](C)C1 (single isomer, unassigned) [Example 55-40-2]	–	0.078 | nda μM	81 nM
C=CC(=O)N1CCN(c2nc(=O)n(-c3c(CO)cccc3C(C)C)c3nc(-c4ccccc4F)c(Cl)cc23)[C@@H](C)C1 (single isomer, unassigned) [Example 55-43-2]	–	0.022 | nda μM	32 nM
C=CC(=O)N1CCN(c2nc(=O)n(-c3ccccc3S(F)(F)(F)(F)F)c3nc(-c4c(O)cccc4F)c(Cl)cc23)[C@@H](C)C1 (single isomer, unassigned) [Example 56-1-2]	–	0.068 | nda μM	145 nM
C=CC(=O)N1CCN(c2nc(=O)n(-c3c(C)cccc3C3CC3)c3nc(-c4ccccc4F)c(Cl)cc23)[C@@H](C)C1 (single isomer, unassigned) [Example 56-5-1]	188 nM	0.154 | nda μM	–
C=CC(=O)N1CCN(c2nc(=O)n(-c3c(C)cccc3C3CC3)c3nc(-c4ccccc4F)c(Cl)cc23)[C@@H](C)C1 (single isomer, unassigned) [Example 56-5-2]	823 nM	0.668 | nda μM	–
C=CC(=O)N1CCN(c2nc(=O)n(-c3ccccc3C(C)C)c3nc(-c4cc(N)ccc4Cl)c(Cl)cc23)[C@@H](C)C1 (single isomer, unassigned) [Example 56-7-1]	29 nM	0.079 | nda μM	–
C=CC(=O)N1CCN(c2nc(=O)n(-c3ccccc3C(C)C)c3nc(-c4cc(N)ccc4Cl)c(Cl)cc23)[C@@H](C)C1 (single isomer, unassigned) [Example 56-7-2]	134 nM	0.676 | nda μM	–
C=CC(=O)N1CCN(c2nc(=O)n(-c3c(C)ccnc3CC)c3nc(-c4c(O)cccc4F)c(F)cc23)[C@@H](C)C1 (single isomer, unassigned) [Example 57-1-1]	–	0.524 | nda μM	630 nM
C=CC(=O)N1CCN(c2nc(=O)n(-c3ccccc3C(C)C)c3nc(-c4c(O)cccc4F)c(F)cc23)[C@@H](C)C1 (single isomer, unassigned) [Example 57-6-1]	2090 nM	3.163 | nda μM	–
C=CC(=O)N1CCN(c2nc(=O)n(-c3ccccc3C(C)C)c3nc(-c4ccccc4Cl)c(F)cc23)[C@@H](C)C1 (single isomer, unassigned) [Example 57-8-2]	–	0.514 | nda μM	166 nM
C=CC(=O)N1CCN(c2nc(=O)n(-c3c(C)cccc3CC)c3nc(-c4c(O)cccc4F)c(F)cc23)[C@@H](C)C1 (single isomer, unassigned) [Example 57-14-1]	–	0.288 | nda μM	348 nM
C=CC(=O)N1CCN(c2nc(=O)n(-c3c(Cl)cccc3C(C)C)c3nc(-c4c(O)cccc4F)c(F)cc23)[C@@H](C)C1 (single isomer, unassigned) [Example 57-15-1]	104 nM	0.089 | nda μM	–
C=CC(=O)N1CCN(c2nc(=O)n(-c3c(Cl)cccc3C(C)C)c3nc(-c4c(O)cccc4F)c(F)cc23)[C@@H](C)C1 (single isomer, unassigned) [Example 57-15-2]	984 nM	0.841 | nda μM	–
C=CC(=O)N1CCN(c2nc(=O)n(-c3c(C)cccc3C(C)(C)C)c3nc(-c4c(O)cccc4F)c(F)cc23)[C@@H](C)C1 (single isomer, unassigned) [Example 57-17-1]	–	0.316 | nda μM	300 nM

Structure (SMILES)	IC50 [1]	Coupled exchange IC50 (5 min) [2]	IC50 ([1]; Homo sapiens, MIA PaCa-2, 2 h)
C=CC(=O)N1CCN(c2nc(=O)n(-c3ccccc3C(C)(C)C)c3nc(-c4c(O)cccc4F)c(F)cc23)[C@@H](C)C1 (single isomer, unassigned) [Example 58-1-2]	–	0.572 | nda μM	570 nM
C=CC(=O)N1CCN(c2nc(=O)n(-c3c(C(F)(F)F)ccnc3C(C)C)c3nc(-c4c(O)cccc4F)c(F)cc23)[C@@H](C)C1 (single isomer, unassigned) [Example 58-3-1]	144 nM	0.097 | nda μM	–
C=CC(=O)N1CCN(c2nc(=O)n(-c3c(C(F)(F)F)ccnc3C(C)C)c3nc(-c4c(O)cccc4F)c(F)cc23)[C@@H](C)C1 (single isomer, unassigned) [Example 58-3-2]	867 nM	0.485 | nda μM	–
C=CC(=O)N1CCN(c2nc(=O)n(-c3c(C)ccnc3C(C)C)c3nc(-c4ccccc4F)c(F)cc23)[C@@H](C)C1 (single isomer, unassigned) [Example 58-4-1]	–	0.212 | nda μM	114 nM
C=CC(=O)N1CCN(c2nc(=O)n(-c3c(C)ccnc3C(C)C)c3nc(-c4cc(O)ccc4F)c(F)cc23)[C@@H](C)C1 (single isomer, unassigned) [Example 58-5-2]	–	0.216 | nda μM	743 nM
C=CC(=O)N1CCN(c2nc(=O)n(-c3c(C)ccnc3C(C)C)c3nc(-c4cc(N)ccc4F)c(F)cc23)[C@@H](C)C1 (single isomer, unassigned) [Example 58-6-2]	–	0.236 | nda μM	367 nM
C=CC(=O)N1CCN(c2nc(=O)n(-c3c(C)ccnc3C(C)C)c3nc(-c4cc(O)cc(Cl)c4Cl)c(F)cc23)[C@@H](C)C1 (single isomer, unassigned) [Example 58-7-1]	1840 nM	0.335 | nda μM	–
C=CC(=O)N1CCN(c2nc(=O)n(-c3c(C)ccnc3C(C)C)c3nc(-c4cc(O)cc(Cl)c4Cl)c(F)cc23)[C@@H](C)C1 (single isomer, unassigned) [Example 58-7-2]	515 nM	0.041 | nda μM	–
C=CC(=O)N1CCN(c2nc(=O)n(-c3c(C)ccnc3C(C)C)c3nc(-c4cc(N)ccc4Cl)c(F)cc23)[C@@H](C)C1 (single isomer, unassigned) [Example 58-8-1]	–	0.213 | nda μM	180 nM
C=CC(=O)N1CCN(c2nc(=O)n(-c3c(C)ccnc3C(C)C)c3nc(-c4c(O)cccc4Cl)c(F)cc23)[C@@H](C)C1 (single isomer, unassigned) [Example 58-9-1]	47 nM	0.046 | nda μM	–
C=CC(=O)N1CCN(c2nc(=O)n(-c3c(C)ccnc3C(C)C)c3nc(-c4c(O)cccc4Cl)c(F)cc23)[C@@H](C)C1 (single isomer, unassigned) [Example 58-9-2]	326 nM	0.349 | nda μM	–
C=CC(=O)N1CCN(c2nc(=O)n(-c3c(C)ccnc3C(C)C)c3nc(-c4ccc(F)cc4F)c(F)cc23)[C@@H](C)C1 (single isomer, unassigned) [Example 58-10-1]	–	0.264 | nda μM	257 nM
C=CC(=O)N1CCN(c2nc(=O)n(-c3c(C)cccc3C3CC3)c3nc(-c4c(O)cccc4F)c(F)cc23)[C@@H](C)C1 (single isomer, unassigned) [Example 58-13-2]	–	0.26 | nda μM	371 nM
C=CC(=O)N1CCN(c2nc(=O)n(-c3c(C(C)C)ccnc3C)c3nc(-c4ccccc4F)c(F)cc23)[C@@H](C)C1 (single isomer, unassigned) [Example 58-16-2]	–	0.315 | nda μM	317 nM
C=CC(=O)N1CCN(c2nc(=O)n(-c3ccccc3C(C)(C)C)c3nc(-c4ccccc4F)c(F)cc23)[C@@H](C)C1 (single isomer, unassigned) [Example 58-17-2]	–	0.849 | nda μM	672 nM
C=CC(=O)N1CCN(c2nc(=O)n(-c3c(C4CC4)ccnc3C)c3nc(-c4c(O)cccc4F)c(F)cc23)[C@@H](C)C1 (single isomer, unassigned) [Example 58-19-2]	–	0.226 | nda μM	525 nM
C=CC(=O)N1CCN(c2nc(=O)n(-c3c(C4CC4)ccnc3C)c3nc(-c4ccccc4F)c(F)cc23)[C@@H](C)C1 (single isomer, unassigned) [Example 58-20-2]	–	0.807 | nda μM	410 nM
C=CC(=O)N1CCN(c2nc(=O)n(-c3c(F)cccc3C(C)C)c3nc(-c4c(O)cccc4F)c(F)cc23)[C@@H](C)C1 (single isomer, unassigned) [Example 59-2-1]	–	0.112 | nda μM	137 nM
